Assay results published in PubChem BioAssay (NCI).
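Test compounds were applied to cells in 96-well plates for 48 hours at 5 doses. At the GI50, growth is halved. The concentration for full growth arrest is given as TGI.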

What was measured:
Experiment in all cases: NCI anticancer screen, dose series, 48 h
HCC-2998 colon = test system: HCC-2998 colon
RPMI-8226 leukemia = test system: RPMI-8226 leukemia
SR leukemia = test system: SR leukemia
OVCAR-8 ovarian = test system: OVCAR-8 ovarian
SK-MEL-2 melanoma = test system: SK-MEL-2 melanoma
SW-620 colon = test system: SW-620 colon
HCT-15 colon = test system: HCT-15 colon
SNB-19 CNS = test system: SNB-19 CNS
A498 renal = test system: A498 renal
MDA-MB-435 = test system: MDA-MB-435

Row | SMILES | TGI (HCC-2998 colon) | TGI (RPMI-8226 leukemia) | TGI (SR leukemia) | TGI (OVCAR-8 ovarian) | TGI (SK-MEL-2 melanoma) | TGI (SW-620 colon) | TGI (HCT-15 colon) | TGI (SNB-19 CNS) | TGI (A498 renal) | TGI (MDA-MB-435) | GI50 (RPMI-8226 leukemia) | GI50 (SR leukemia) | GI50 (OVCAR-8 ovarian) | GI50 (SK-MEL-2 melanoma) | GI50 (SW-620 colon) | GI50 (HCT-15 colon) | GI50 (SNB-19 CNS) | GI50 (A498 renal) | GI50 (MDA-MB-435)
1 | COc1ccc2nc3c(c(NCCCN(C)C)c2c1)CCCC3 | 21.5 µM | 27.2 µM | 5.77 µM | 36.4 µM | 37.1 µM | 51.5 µM | 33.9 µM | 48.8 µM | 36.3 µM |  |  |  |  |  |  |  |  |  | 
2 | Cc1nc2n(c1/C=C1/C(=O)Nc3ccccc31)CCS2 | 61.9 µM | > 100 µM |  | > 100 µM | 26.2 µM | > 100 µM | > 100 µM | > 100 µM | > 100 µM | 36.1 µM |  |  |  |  |  |  |  |  | 
3 | O=C1Nc2cc([N+](=O)[O-])c(Br)cc2C1=O |  | 43.3 µM | 37.4 µM | 31.6 µM | 71.9 µM | 38.6 µM | 37.1 µM |  | > 100 µM |  |  |  |  |  |  |  |  |  | 
4 | C[N+](C)(C)C=Nc1cccc2c1CCCC2 |  | > 100 µM | > 100 µM | > 100 µM | > 100 µM |  | > 100 µM | > 100 µM | > 100 µM | > 100 µM |  |  |  |  |  |  |  |  | 
5 | Cc1ccc(-n2cc(-c3ccc(Cl)cc3)c3c(NN)ncnc32)cc1 | 22.2 µM |  | 9.28 µM | 7.02 µM | 47.1 µM | 26.2 µM | 26.1 µM | 40.9 µM |  | 29.4 µM |  |  |  |  |  |  |  |  | 
6 | CC(C)(O)C1CC[C@]2(C)[C@H]3CC[C@@H]4[C@@]5(C)CCCC(C)(C)[C@@H]5CC[C@@]4(C)[C@]3(C)CC[C@@H]12 (stereo not given in full) | > 100 µM | > 100 µM |  | > 100 µM | > 100 µM | > 100 µM | > 100 µM | > 100 µM | > 100 µM | > 100 µM |  |  |  |  |  |  |  |  | 
7 | CC(=O)NC1=C(NCCCl)C(=O)c2ccccc2C1=O | > 100 µM | > 100 µM | > 100 µM | 52.4 µM |  | > 100 µM | > 100 µM | > 100 µM |  | 31.1 µM |  |  |  |  |  |  |  |  | 
8 | O=S(=O)(c1ccc(-c2nnc(-c3ccc(F)cc3)o2)cc1)c1ccc(-c2nnc(-c3ccc(F)cc3)o2)cc1 | > 100 µM | > 100 µM |  | > 100 µM | > 100 µM | > 100 µM | > 100 µM | > 100 µM | 58.6 µM | > 100 µM |  |  |  |  |  |  |  |  | 
9 | COc1ccc(C(Cc2ccccc2)C2NC(=S)NC2=O)cc1 (stereo not given) |  | > 25 µM | > 25 µM | > 25 µM | > 25 µM | > 25 µM | > 25 µM | > 25 µM | > 25 µM | > 25 µM |  |  |  |  |  |  |  |  | 
10 | COc1ccccc1N=Nc1c(O)c(S(=O)(=O)O)cc2cc(S(=O)(=O)O)ccc12 |  | > 100 µM | > 100 µM | > 100 µM | > 100 µM | > 100 µM | > 100 µM | > 100 µM | > 100 µM | > 100 µM |  |  |  |  |  |  |  |  | 
11 | CCOC(=O)c1cc2c(OCc3ccccc3)c(OC)cc3c2c(n1)N(c1ccc(OC)cc1)C(C)C3 (stereo not given) | > 50 µM | > 50 µM | > 50 µM | > 50 µM | > 50 µM | > 50 µM | > 50 µM | > 50 µM | > 50 µM |  |  |  |  |  |  |  |  |  | 
12 | O=NN(CCF)C(=O)NC1CC2CCC1C2 (stereo not given) | > 100 µM | > 87.7 µM |  | > 100 µM | > 100 µM | > 100 µM | > 100 µM | > 100 µM | > 100 µM |  |  |  |  |  |  |  |  |  | 
13 | Cc1cn(C2CC(CCCO)C(CO)O2)c(=O)[nH]c1=O (stereo not given) | > 100 µM | > 100 µM | > 100 µM | > 100 µM | > 100 µM | > 100 µM | > 100 µM | > 100 µM | > 100 µM |  |  |  |  |  |  |  |  |  | 
14 | CCC(COC(=O)CC[C@@H](NC(=O)C(C)NC(=O)C(C)OC1C(O)C(CO)OC(OCc2ccccc2)C1NC(C)=O)C(N)=O)NC1c2ccccc2Nc2cccc([N+](=O)[O-])c21 (stereo not given in full) | > 100 µM | > 100 µM | > 100 µM | > 100 µM | > 100 µM | > 100 µM | > 100 µM | > 100 µM |  |  |  |  |  |  |  |  |  |  | 
15 | CN(C(=O)c1ccc2c(c1)sc1c(=O)n(C)c3ccccc3c12)c1ccccc1 | > 100 µM |  | > 100 µM | > 100 µM | > 100 µM | > 100 µM | > 100 µM | > 100 µM |  | > 100 µM |  |  |  |  |  |  |  |  | 
16 | Cc1c(OCc2ccccc2)c(=O)ccn1CCc1c[nH]c2ccccc12 |  | 59.3 µM | 79.7 µM | > 100 µM | 48.2 µM | > 100 µM | > 100 µM | > 100 µM |  | 51.1 µM |  |  |  |  |  |  |  |  | 
17 | COC(=O)C(=O)C(C(=O)C(=O)Nc1cccc([N+](=O)[O-])c1)c1nc2ccc(Cl)cc2[nH]c1=O (stereo not given) | > 100 µM |  |  | > 100 µM | > 100 µM | > 100 µM | > 100 µM | > 100 µM |  | > 100 µM |  |  |  |  |  |  |  |  | 
18 | O=C(Sc1c(-c2ccccc2)c(=O)n(-c2ccccc2)c(=S)n1-c1ccccc1)c1cccs1 |  | > 100 µM | > 100 µM | > 100 µM | > 100 µM | > 100 µM | > 100 µM | > 100 µM |  | > 100 µM |  |  |  |  |  |  |  |  | 
19 | Cc1ccnc2nc(N)ccc12 |  | > 100 µM | > 100 µM | > 100 µM | > 100 µM | > 100 µM | > 100 µM | > 100 µM | > 100 µM | > 100 µM |  |  |  |  |  |  |  |  | 
20 | Cc1cccc2nc3c(=O)[nH]c(=O)nc-3n(C)c12 | > 100 µM | 95.4 µM |  | > 100 µM | > 100 µM | > 100 µM | > 100 µM | > 100 µM |  | 34.1 µM |  |  |  |  |  |  |  |  | 
21 | COc1ccc(/C=C/C(=O)c2ccc(-n3cc(CN4CCN(c5cc6c(cc5F)c(=O)c(C(=O)O)cn6C5CC5)CC4)nn3)cc2)cc1OC |  | 4.46 µM | > 100 µM | > 100 µM | > 100 µM | 6.98 µM | > 100 µM | 66.7 µM | 14.4 µM | 4.67 µM | 0.401 µM | 0.434 µM | 4.03 µM | 21.1 µM | 1.37 µM | 2.25 µM | 4.52 µM | 4.18 µM | 1.49 µM
22 | CCOC(=O)CCC1(C(=O)OCC)CCCC1=O (stereo not given) | > 100 µM | 77.4 µM | 60.4 µM | > 100 µM | > 100 µM |  | > 100 µM | > 100 µM | > 100 µM |  |  |  |  |  |  |  |  |  | 
23 | COc1cc(C2C(Cl)C(=O)N2NC(=O)c2ccc(NC(C)=O)cc2)ccc1O (stereo not given) |  | > 100 µM |  | > 100 µM | > 100 µM | > 100 µM | > 100 µM | > 100 µM | > 100 µM |  |  |  |  |  |  |  |  |  | 
